Test results taken from patent publication US8399468B2, “Octahydro-pyrrolo[3,4-B]pyrrole derivatives” (Abbott Laboratories, priority 2006, dated 2013).

Conditions: compared with the 2-{4′-[(3aR,6aR)-5-methylhexahydropyrrolo[3,4-b]pyrrol-1(2H)-yl]-1,1′-biphenyl-4-yl}pyridazin-3(2H)-one compound

For `CN1C[C@H]2CCN(c3ccc(-c4ccc(-n5ncccc5=O)cc4)cc3)[C@H]2C1.O.O=C(O)C(O)C(O)C(=O)O` [L-tartrate monohydrate Form A salt, 2-{4′-[(3aR,6aR)-5-Methylhexahydropyrrolo[3,4-b]pyrrol-1(2H)-yl]-1,1′-biphenyl-4-yl}pyridazin-3(2H)-one L-tartrate monohydrate Form A], the relative oxidative stability was “better relative oxidative stability”.
